Results from article PMC6199744, “Development of Chemical Proteomics for the Folateome and Analysis of the Kinetoplastid Folateome” (ACS Infectious Diseases, 2018).
Where two headings read alike, the source gives them in different places.

Test system: T. brucei lysate proteins
Type: binding, Trypanosoma brucei
Settings: vehicle control = 1

NCCCNc1ccc(C(=O)NC(CCC(=O)O)C(=O)O)cc1 (centres unmarked) [compound 7]
fold change vs vehicle control (protein TB427.04.760 GAMMA-ADAPTIN 1, PUTATIVE): 0.84 | fold change (protein TB427.05.1210 SHORT-CHAIN DEHYDROGENASE, PUTATIVE): 0.95 | fold change vs vehicle control (protein TB427.05.1320 HY[…], CONSERVED): 0.92 | fold change (protein TB427.05.3030 INTR[…] PROTEIN IFT122, PUTATIVE): 0.96 | fold change vs vehicle control (protein TB427.05.4560 GUANINE DEAMINASE, PUTATIVE): 0.91 | fold change vs vehicle control (protein TB427.06.1070 HY[…], CONSERVED): 1.17 | fold change (protein TB427.06.2550 RNA-BINDING PROTEIN, PUTATIVE): 1.51 | fold change (protein TB427.06.3500 ENDOSOMAL T[…] RME-8, PUTATIVE): 0.89 | fold change (protein TB427.06.3630 SPHINGOSINE 1-PHOSPHATE LYASE, PUTATIVE): 0.95 | fold change (protein TB427.06.3650 ADP-RI[…], PUTATIVE): 0.97 | fold change (protein TB427.06.3670 PAR[…] COMPONENT, PUTATIVE): 1 | fold change (protein TB427.06.700 ALANYL-TRNA SYNTHETASE, PUTATIVE): 0.84 | fold change vs vehicle control (protein TB427.07.1300 PROTEIN DISULFIDE ISOMERASE, PUTATIVE): 1.3 | fold change vs vehicle control (protein TB427.07.3160 DYNEIN HEAVY CHAIN, CYTOSOLIC, PUTATIVE): 0.87 | fold change (protein TB427.07.3980 IMMU[…], PUTATIVE): 0.91 | fold change vs vehicle control (protein TB427.07.4170 FATTY ACID ELONGASE, PUTATIVE): 0.97 | fold change (protein TB427.07.4180 FATTY ACID ELONGASE, PUTATIVE): 1.1 | fold change (protein TB427.07.4970 GLUTAMINE SYNTHETASE, PUTATIVE): 0.98 | fold change vs vehicle control (protein TB427.07.7500 THYMINE-7-HYDROXYLASE, PUTATIVE): 0.95 | fold change vs vehicle control (protein TB427.08.1210 HY[…], CONSERVED): 1.49 | fold change (protein TB427.08.2060 HY[…], CONSERVED): 0.91 | fold change (protein TB427.08.2080 HY[…], CONSERVED): 0.91 | fold change (protein TB427.08.3150 T-COMPLEX PROTEIN 1, GAMMA SUBUNIT, PUTATIVE): 0.97 | fold change (protein TB427.08.4210 HY[…], CONSERVED): 0.91 | fold change (protein TB427.08.5760 HY[…], CONSERVED): 0.99 | fold change (protein TB427.10.10350 PROTEIN KINASE, PUTATIVE): 0.62 | fold change (protein TB427.10.10360 MICROTUBULE-[…], PUTATIVE): 0.85 | fold change (protein TB427.10.1060 T-COMPLEX PROTEIN 1, DELTA SUBUNIT, PUTATIVE): 0.96 | fold change vs vehicle control (protein TB427.10.10610 PROTEIN TYROSINE PHOSPHATASE, PUTATIVE): 1.47 | fold change (protein TB427.10.1070 CELL DIVISION PROTEIN KINASE 2 HOMOLOG 1 (CRK1)): 0.93 | fold change vs vehicle control (protein TB427.10.11760 PUMILIO/PUF RNA BINDING PROTEIN 6): 0.99 | fold change (protein TB427.10.12710 HEAT SHOCK PROTEIN, PUTATIVE): 0.77 | fold change vs vehicle control (protein TB427.10.12820 HY[…], CONSERVED): 0.93 | fold change vs vehicle control (protein TB427.10.12890 BI[…]-TRNA SYNTHETASE, PUTATIVE): 0.98 | fold change (protein TB427.10.14140 PYRUVATE KINASE 1): 0.86 | fold change vs vehicle control (protein TB427.10.14180 PROTEIN TRANSPORT PROTEIN SEC13, PUTATIVE): 0.89 | fold change vs vehicle control (protein TB427.10.14470 INTR[…] PROTEIN IFT140, PUTATIVE): 1.33 | fold change (protein TB427.10.1450 HY[…], CONSERVED): 0.88 | fold change (protein TB427.10.14860 HY[…], CONSERVED): 0.95 | fold change vs vehicle control (protein TB427.10.14950 RNA BINDING PROTEIN, PUTATIVE): 1.37 | fold change (protein TB427.10.2350 PYRUVATE DEH[…] E3 BINDING PROTEIN, PUTATIVE): 0.93 | fold change (protein TB427.10.2440 METACASPASE MCA4): 0.83 | fold change vs vehicle control (protein TB427.10.3470 HY[…], CONSERVED): 1.2 | fold change (protein TB427.10.4610 […]-MANNOSE SYNTHASE, PUTATIVE): 0.98 | fold change vs vehicle control (protein TB427.10.5810 HY[…], CONSERVED): 0.88 | fold change (protein TB427.10.5840 T[…] 1-BETA, PUTATIVE): 0.92 | fold change (protein TB427.10.5850 HY[…], CONSERVED): 0.88 | fold change (protein TB427.10.6150 […]/BEIGE PROTEIN, PUTATIVE): 0.99 | fold change (protein TB427.10.6310 MAJOR VAULT PROTEIN, PUTATIVE): 0.93 | fold change (protein TB427.10.730 ATP SYNTHASE, PUTATIVE): 0.84 | fold change vs vehicle control (protein TB427.10.7410 SUCCINYL-COA LIGASE GDP-FORMING] BETA-CHAIN, PUTATIVE): 0.94 | fold change (protein TB427.10.8190 T-COMPLEX PROTEIN 1, THETA SUBUNIT, PUTATIVE): 0.94 | fold change vs vehicle control (protein TB427.10.8230 PROTEIN DISULFIDE ISOMERASE): 1.25 | fold change (protein TB427.10.8720 HY[…], CONSERVED): 1 | fold change vs vehicle control (protein TB427.10.8850 HY[…], CONSERVED): 0.93 | fold change (protein TB427.10.9890 HY[…], CONSERVED): 0.65 | fold change (protein TB927.10.12960 RAS-RELATED PROTEIN RAB-5): 0.98 | fold change (protein TB927.10.1550 […]-ATP-ASE SUBUNIT 5): 0.9 | fold change (protein TB927.1.2330 BETA TUBULIN): 0.99 | fold change vs vehicle control (protein TB927.10.2890 ENOLASE): 0.91 | fold change (protein TB927.10.3660 ASPARTATE AMINOTRANSFERASE): 0.96 | fold change (protein TB927.10.4180 TFIIF-[…] PHOSPHATASE, PUTATIVE): 0.87 | fold change (protein TB927.10.5500 HY[…], CONSERVED): 0.99 | fold change (protein TB927.10.6050 CLATHRIN HEAVY CHAIN): 0.87 | fold change vs vehicle control (protein TB927.10.8030 HY[…], CONSERVED): 1 | fold change vs vehicle control (protein TB927.10.8940 HY[…], CONSERVED): 0.97 | fold change (protein TB927.2.100 RETRO[…] SPOT (RHS) PROTEIN, PUTATIVE,RETRO[…] SPOT PROTEIN 1 (RHS1), PUTATIVE): 0.9 | fold change vs vehicle control (protein TB927.2.2440 […]-ATPASE SUBUNIT 6): 1.85 | fold change (protein TB927.2.3800 MRNA […], PUTATIVE): 0.77 | fold change (protein TB927.3.1240 PROTEIN PHOSPHATASE 2A, PUTATIVE): 0.77 | fold change vs vehicle control (protein TB927.3.2960 INOSINE-ADENOSINE-GUANOSINE-[…]): 0.82 | fold change (protein TB927.3.3190 SERINE/THREONINE-PROTEIN KINASE, PUTATIVE): 0.89 | fold change vs vehicle control (protein TB927.3.3450 ADP-RI[…]-LIKE PROTEIN 3A, PUTATIVE): 0.76 | fold change (protein TB927.3.3780 TRYPAREDOXIN): 0.9 | fold change vs vehicle control (protein TB927.3.5120 HY[…], CONSERVED (Ankyrin repeats (3 copies), putative)): 1.2 | fold change vs vehicle control (protein TB927.3.740 HY[…], CONSERVED): 0.97 | fold change (protein TB927.4.3590 T[…] 1-BETA, PUTATIVE): 0.77 | fold change (protein TB927.5.3220 SIGNAL PEPTIDASE TYPE I, PUTATIVE): 0.9 | fold change vs vehicle control (protein TB927.5.4440 DYNEIN LIGHT CHAIN, PUTATIVE): 1.1 | fold change (protein TB927.6.2200 HY[…], CONSERVED): 0.97 | fold change (protein TB927.6.4460 S-ADENOSYLMETHIONINE DECARBOXYLASE): 0.97 | fold change vs vehicle control (protein TB927.6.560 CYSTEINE PEPTIDASE C (CPC)): 1 | fold change vs vehicle control (protein TB927.7.4470 HY[…], CONSERVED): 1.22 | fold change (protein TB927.7.6320 HY[…], CONSERVED): 0.96 | fold change vs vehicle control (protein TB927.7.7430 ATP SYNTHASE ALPHA CHAIN, MIT[…]): 0.93 | fold change (protein TB927.8.1990 PEROXIDOXIN): 0.67 | fold change vs vehicle control (protein TB927.8.4810 PROHIBITIN 1): 0.99 | fold change (protein TB927.8.890 SMALL GTP-BINDING PROTEIN RAB1, PUTATIVE): 0.93 | fold change (protein TB-292 MEMBRANE ASSOCIATED PROTEIN): 0.93
